These results are taken from patent US9890185B2, “Urea derivatives useful as kinase inhibitors” (Respivert Limited, priority 2013, dated 2018).

In one series the target is p38 MAPK β (Homo sapiens (Human), UniProt Q15759). Put plainly: KINOMEscan enzyme binding assay (p38 MAPKβ). Conditions: KINOMEscan technology; read-out: Dissociation Constant, p38 MAPK β. The protocol: (§1) Kinase enzyme binding activities of compounds disclosed herein may be determined using a proprietary assay which measures active site-directed competition binding to an immobilized ligand (Fabian, M. A. et al., Nature Biotechnol., 2005, 23:329-336). These assays may be conducted by DiscoverX (formerly Ambit; San Diego, Calif.). The percentage inhibition produced by incubation with a test compound may be calculated relative to the non-inhibited control.
Sequence of p38 MAPK β (Q15759 whole entry): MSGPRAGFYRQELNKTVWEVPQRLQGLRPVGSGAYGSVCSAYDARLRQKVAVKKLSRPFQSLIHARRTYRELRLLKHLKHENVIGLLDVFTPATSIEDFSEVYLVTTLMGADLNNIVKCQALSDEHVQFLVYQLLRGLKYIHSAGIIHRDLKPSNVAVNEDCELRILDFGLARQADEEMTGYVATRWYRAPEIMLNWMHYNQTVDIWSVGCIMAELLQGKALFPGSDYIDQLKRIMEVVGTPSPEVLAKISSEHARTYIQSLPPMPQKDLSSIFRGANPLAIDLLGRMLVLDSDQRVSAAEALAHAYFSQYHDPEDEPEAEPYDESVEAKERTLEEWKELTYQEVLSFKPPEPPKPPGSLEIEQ

Another series has as its target p38 MAPK α (Homo sapiens (Human), UniProt Q16539). Put plainly: KINOMEscan enzyme binding assay (p38 MAPKα). Conditions: KINOMEscan technology; read-out: Dissociation Constant, p38 MAPK α. The protocol:
as §1

The target of another series is Syk (Homo sapiens (Human), UniProt P43405). Put plainly: KINOMEscan enzyme binding assay (Syk). Conditions: KINOMEscan technology; read-out: Dissociation Constant, Syk. The procedure: as §1
Series [1] relates to endotoxin (LPS)-induced uveitis. Put plainly: Endotoxin-induced uveitis in rats (in vivo assay vi). Set-up: species or system Lewis rats. Conditions: for IL-1β Anterior tissue / IL-1β Posterior tissue: LPS-stimulated rats, topical to eye; for Cell counts: eyes of LPS-stimulated rats, topical. The protocol:
Male, Lewis rats (6-8 weeks old, Charles River UK Limited) are housed in cages of 3 at 19-21° C. with a 12 h light/dark cycle (07:00/19:00) and fed a standard diet of rodent chow and water ad libitum. […] Untreated rats are injected with PBS. […] Before administration, the solution or suspension to be administered is agitated for 5 minutes to ensure a uniform suspension. 6 hours after LPS dosing, animals are euthanized by overdose with pentobarbitone (i.v.). Following euthanasia, the right eye of each animal is enucleated and dissected into front (anterior) and back (posterior) sections around the lens. Each section is weighed and homogenised in 500 μL of sterile phosphate buffered saline followed by 20 minutes centrifugation at 12000 rpm at 4° C. The resulting supernatant is divided into 3 aliquots and stored at −80° C. until subsequent cytokine analysis by R&D DuoSet ELISA.

A short description of series [2]: Solubility in fasted-state simulated colonic fluid (FaSSCoF). The series is classed as physicochemical. As to conditions: thermodynamic from solid, pH 6.5, 25° C.; for solubility thermodynamic at 24 h: 25 °C, pH 6.5, fassgf or other biorelevant; for solubility at 24 h: fassgf or other biorelevant, read-out: Solubility in the FaSSCoF medium. The procedure:
The solubilities of compounds of the invention in FaSSCoF at pH 6.5 are determined using a modification of a previously-reported procedure (Vertzoni, M., et al. Pharm. Res. 2010, 27, 2187-2196). In place of the bile salt extract employed in the original procedure (which extract is no longer available), the modified procedure uses a mixture of sodium taurochlorate (0.15 g), glycocholic acid (0.15 g), ursodeoxycholic acid (0.05 g), cholic acid (0.05 g), and glycodeoxycholic acid (0.05 g). These five bile acids are ground together with a mortar and pestle to produce a fine white powder that is incorporated into the FaSSCoF, as outlined below.
Tris(hydroxymethyl)aminomethane (Tris; 0.275 g) and maleic acid (0.44 g) are dissolved in water (35 mL) to give a solution whose pH is adjusted to 6.5 by treatment with 0.5M NaOH (ca. 12 mL). The solution is then made up to 50 mL with water. A portion of this Tris/maleate buffer solution (ca. 25 mL) is added to a 0.5 L round-bottomed flask, before being treated with 0.00565 g of the bile acid mixture described above. Solutions of phosphatidylcholine (0.0111 g) in DCM (0.15 mL) and palmitic acid (0.0013 g) in DCM (0.15 mL) are added, then the organic solvent is evaporated off under reduced pressure at 40° C. until a clear solution, with no perceptible DCM odour, is achieved. The volume of the evaporated solution is adjusted to 50 mL by addition of the remainder of Tris/maleate buffer, then BSA (0.115 g) is added, before being dissolved by gentle agitation.
Test compounds are suspended in the pH 6.5 FaSSCoF medium to give a maximum final concentration of ca. 6 mg/mL. The suspensions are equilibrated at 25° C. for 24 h, before being filtered through a glass fibre C filter. The filtrates are then diluted as appropriate for injection and quantification by HPLC with reference to a standard. Different volumes of the standard, diluted and undiluted sample solutions are injected and the solubilities are calculated using the peak areas determined by integration of the peak found at the same retention time as the principal peak in the standard injection.

Where [3] appears, read: Run 1, read-out: pH 6.5 FaSSCoF Solubility Run 1.
Setting [4] is: Run 2, read-out: pH 6.5 FaSSCoF Solubility Run 2.

Molecules are shown by their SMILES. Converted amounts (≈) assume the structure as drawn. Where two headings read alike, the source gives them in different places. Some results are limits rather than exact numbers.

Sequence of p38 MAPK α (Q16539 whole entry): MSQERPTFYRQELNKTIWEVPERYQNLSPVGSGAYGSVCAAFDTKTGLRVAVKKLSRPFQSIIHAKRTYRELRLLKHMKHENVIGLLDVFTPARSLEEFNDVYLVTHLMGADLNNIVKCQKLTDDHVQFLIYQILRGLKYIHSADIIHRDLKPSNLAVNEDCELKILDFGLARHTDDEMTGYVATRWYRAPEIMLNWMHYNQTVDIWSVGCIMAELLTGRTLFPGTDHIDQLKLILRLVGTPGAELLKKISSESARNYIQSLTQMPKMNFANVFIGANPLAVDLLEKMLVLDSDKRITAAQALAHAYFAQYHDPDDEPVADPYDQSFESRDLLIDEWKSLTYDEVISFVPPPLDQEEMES

As for `COc1c(NC(=O)Nc2ccc(Oc3ccnc(Nc4ccccc4)c3)c3ccccc23)cc(C(C)(C)C)cc1[S+](C)[O-]` (racemic) [Example 12, 1-(5-(tert-Butyl)-2-methoxy-3-(methylsulfinyl)phenyl)-3-(4-((2-(phenylamino)pyridin-4-yl)oxy)naphthalen-1-yl)urea], the values for the Kd on p38 MAPK β, at p38 MAPK α and on Syk were 0.057 µM, 0.011 µM and 0.018 µM, respectively.
Taken in the same sequence, the figures for `COCCOCCOCCOc1cc(Nc2cc(Oc3ccc(NC(=O)Nc4cc(C(C)(C)C)cc(S(C)(=O)=O)c4OC)c4ccccc34)ccn2)cc(OC)c1` [Example 9, 1-(5-(tert-Butyl)-2-methoxy-3-(methylsulfonyl)phenyl)-3-(4-((2-((3-methoxy-5-(2-(2-(2-methoxyethoxy)ethoxy)ethoxy)phenyl)amino)pyridin-4-yl)oxy)naphthalen-1-yl)urea] were 0.34 µM, 0.026 µM and 0.029 µM.
`COc1cc(Nc2cc(Oc3ccc(NC(=O)Nc4cc(C(C)(C)C)cc(P(C)(C)=O)c4OC)c4ccccc34)ccn2)cc(C(N)=O)c1` [Example 37, 3-((4-((4-(3-(5-(tert-butyl)-3-(dimethylphosphoryl)-2-methoxyphenyl)ureido)-naphthalen-1-yl)oxy)pyridin-2-yl)amino)-5-methoxybenzamide]: the “IL-1β Anterior tissue” value was determined as 480.1 ± 113.7 pg/mL in series [1] (0.1 mg/mL) and 330.4 ± 94.2 pg/mL in series [1] (1 mg/mL). Moreover, the “IL-1β Posterior tissue” value in series [1] (0.1 mg/mL) is 319.6 ± 64.8 pg/mL; in series [1] (1 mg/mL), 285.8 ± 96.4 pg/mL. Moreover, the Cell counts is reported as 39.1 ± 7.1 in series [1] (0.1 mg/mL) and 32.6 ± 9.5 in series [1] (1 mg/mL). In series [1] (rats treated with intravitreal endotoxin LPS), the “Cytokine levels in anterior and posterior segments of the eyes” value is listed as “significantly reduced”. Further, the Kd is 0.0045 µM on p38 MAPK α and 0.0051 µM on Syk.
As for `COc1cc(Nc2cc(Oc3ccc(NC(=O)Nc4cc(C(C)(C)C)cc([S+](C)[O-])c4OC)c4ccccc34)ccn2)ccc1C(=O)NCCN1CCOCC1` (stereo not drawn) [Example 72, 4-((4-((4-(3-(5-(tert-Butyl)-2-methoxy-3-(methylsulfinyl)phenyl)ureido)naphthalen-1-yl)oxy)pyridin-2-yl)amino)-2-methoxy-N-(2-morpholinoethyl)benzamide], the solubility thermodynamic at 24 h is 10.7 µg/mL (≈ 13.7 µM) in series [2] (setting [3]) and 11.2 µg/mL (≈ 14.3 µM) in series [2] (setting [4]). For the same molecule, the solubility at 24 h in series [2] is over 10 µg/mL.
Taken in the same sequence, the figures for `COc1cc(Nc2cc(Oc3ccc(NC(=O)Nc4cc(C(C)(C)C)cc(CC(N)=O)c4OC)c4ccccc34)ccn2)ccc1C(=O)NCC(CO)(CO)CO` [Example 73, 4-((4-((4-(3-(3-(2-Amino-2-oxoethyl)-5-(tert-butyl)-2-methoxyphenyl)ureido)naphthalen-1-yl)oxy)pyridin-2-yl)amino)-N-(3-hydroxy-2,2-bis(hydroxymethyl)propyl)-2-methoxybenzamide] were 15.2 µg/mL (≈ 19.5 µM), 16.6 µg/mL (≈ 21.3 µM) and over 10 µg/mL.
Turning to `COCCOCCOCCNC(=O)c1cc(Nc2cc(Oc3ccc(NC(=O)Nc4cc(C(C)(C)C)cc(CNC(=O)CN(C)C)c4OC)c4ccccc34)ccn2)cc(OC)c1` [Example 77, 3-((4-((4-(3-(5-(tert-Butyl)-3-((2-(dimethylamino)acetamido)methyl)-2-methoxyphenyl)ureido)naphthalen-1-yl)oxy)pyridin-2-yl)amino)-5-methoxy-N-(2-(2-(2-methoxyethoxy)ethoxy)ethyl)benzamide], the solubility thermodynamic at 24 h was 12.3 µg/mL (≈ 14.2 µM) in series [2] (setting [3]) and 13 µg/mL (≈ 15 µM) in series [2] (setting [4]). Further, in series [2], the solubility at 24 h is over 10 µg/mL.

Usually solubility stands for the concentration that dissolves in the medium under given conditions.
